Reference: US20240287108A1, “nSMASE2 INHIBITOR PRODRUGS WITH ENHANCED ORAL AND BRAIN EXPOSURES” (The Johns Hopkins University, priority 2021, published 2024)

How the values were obtained:
[1] = in vivo pharmacokinetic studies in mice (Example 1); parameters: species or system mouse; conditions: for AUC / MRT / half-life / Cmax: 10 mg/kg
Description: 1.2.1 In vitro metabolic stability assessment. In vitro metabolic stability assessment was performed using mouse plasma, and liver homogenates. For the liver homogenates, washed tissues were diluted 10-fold in 0.1 M potassium phosphate buffer and homogenized using a probe sonicator. To evaluate the stability of the intact prodrug over time, each of the tissue matrix were aliquoted to 1 mL and then spiked with 10 μM of corresponding prodrugs followed by incubation in an orbital shaker at 37° C. for 1 h (in triplicate). Sample from each incubation at predetermined time points (0 min, and 1 h) was quenched with three volumes of acetonitrile containing the internal standard (IS: losartan: 0.5 μm). Samples were vortex-mixed for 30 secs and centrifuged at 10,000 RPM for 10 min at 4° C. Disappearance of the intact compound was measured using liquid chromatography tandem mass spectrometry (LC-MS/MS). 1.2.2 In vivo pharmacokinetic studies in mice. Male CD-1 mice (n=3) were used to study the pharmacokinetic profiles of representive prodrug compounds. […] Blood and brain were collected after sacrificing the mice at predetermined time points. Plasma was harvested from blood by centrifugation at 3,000 RPM for 15 min and stored at −80° C. Brain tissues were harvested following blood collection and immediately snap frozen in liquid nitrogen and stored at −80° C. until LC-MS/MS analysis. […] Brain tissues were diluted 1:5 w/v with acetonitrile containing losartan (0.5 μm) and homogenized, followed by vortex-mixing and centrifugation at 10,000 RPM for 10 min at 4° C. A 50 μL aliquot of the supernatant was diluted with 50 μL of water and transferred to 250 μL polypropylene autosampler vials sealed with teflon caps. Then, 2 μL of the sample was injected into the LC-MS/MS system for analysis.

[2] = in vitro stability in CES1−/− mouse liver homogenates; type: in vitro ADME; conditions: CES1−/− mouse liver homogenate, 10 μM, 37° C.
Description: (§1) All synthesized prodrugs were next screened for in vitro stability in carboxylesterase 1 knockout (CES1^−/−) mouse plasma, as well as CES1^−/− mouse brain and liver homogenates (Table 2-1). We have previously reported that CES1^−/− mouse model recapitulates human prodrug metabolism.
(§2) For the tissue homogenates, washed tissues were diluted 10-fold in 0.1 M potassium phosphate buffer and homogenized using a probe sonicator. To evaluate the stability of the intact prodrug over time, each of the crude homogenates and plasma were aliquoted to 1 mL and then spiked with a final assay concentration of 10 μM of each prodrug followed by incubation in an orbital shaker at 37° C. for 1 h (in triplicate). Sample from each incubation at predetermined time points (0 min, and 1 h) was quenched with three volumes of acetonitrile containing the internal standard (IS; losartan: 0.5 μm). Samples were vortex-mixed for 30 secs and centrifuged at 10,000×g for 10 min at 4° C. Disappearance of intact prodrugs from these samples were performed on a Dionex ultra-high-performance LC system coupled with Q Exactive Focus orbitrap mass spectrometer (Thermo Fisher Scientific Inc., Waltham MA). […] The mobile phase consisted of 0.1% formic acid in water and 0.1% formic acid in acetonitrile. Pumps were operated at a flow rate of 0.4 mL/min for 9 min using gradient elution. The mass spectrometer controlled by Xcalibur software 4.0.27.13 (Thermo Scientific) was operated with a heated electrospray ionization (HESI) ion source in positive ionization mode. Quantification of the prodrugs were performed in the full-scan mode (from m/z 50 to 1600) by comparing t=0 samples with t=60 min samples.

[3] = in vitro stability in CES1−/− mouse plasma; type: in vitro ADME; conditions: 10 μM
Description: All synthesized prodrugs were next screened for in vitro stability in carboxylesterase 1 knockout (CES1^−/−) mouse plasma, as well as CES1^−/− mouse brain and liver homogenates (Table 2-1). We have previously reported that CES1^−/− mouse model recapitulates human prodrug metabolism. Tenora et al., 2019.
Zimmermann et al., 2018. For the tissue homogenates, washed tissues were diluted 10-fold in 0.1 M potassium phosphate buffer and homogenized using a probe sonicator. To evaluate the stability of the intact prodrug over time, each of the crude homogenates and plasma were aliquoted to 1 mL and then spiked with a final assay concentration of 10 μM of each prodrug followed by incubation in an orbital shaker at 37° C. for 1 h (in triplicate). Sample from each incubation at predetermined time points (0 min, and 1 h) was quenched with three volumes of acetonitrile containing the internal standard (IS; losartan: 0.5 μm). Samples were vortex-mixed for 30 secs and centrifuged at 10,000×g for 10 min at 4° C. Disappearance of intact prodrugs from these samples were performed on a Dionex ultra-high-performance LC system coupled with Q Exactive Focus orbitrap mass spectrometer (Thermo Fisher Scientific Inc., Waltham MA). The separation of analytes was achieved using the Agilent Eclipse Plus column (100×2.1 mm i.d.; maintained at 35° C.) packed with a 1.8 μm C18 stationary phase. The mobile phase consisted of 0.1% formic acid in water and 0.1% formic acid in acetonitrile. Pumps were operated at a flow rate of 0.4 mL/min for 9 min using gradient elution. The mass spectrometer controlled by Xcalibur software 4.0.27.13 (Thermo Scientific) was operated with a heated electrospray ionization (HESI) ion source in positive ionization mode. Quantification of the prodrugs were performed in the full-scan mode (from m/z 50 to 1600) by comparing t=0 samples with t=60 min samples.

[4] = time-dependent oral pharmacokinetics in mice; type: in vivo, mouse
Description: As described earlier, we identified P1 and P18 as the most promising candidates for time dependent PK.
(§3) All PK studies in mice were conducted according to protocols approved by the Animal Care and Use Committee at Johns Hopkins University. Male CD-1 mice between 25 and 30 g were obtained from Harlan and maintained on a 12 h light-dark cycle with ad libitum access to food and water. […] All of the formulations were freshly prepared prior to the dosing. The mice were sacrificed at specified time points (either 2 h or 0.25, 0.5, 1, 2, 4, 6, and 8 h) post drug administration. For the collection of plasma and brain tissue, animals were euthanized with CO2, and blood samples were collected in heparinized microtubes by cardiac puncture. Brains were dissected and immediately flash frozen (−80° C.) Blood samples were spun at 2000 g for 15 min, and plasma was removed and stored at −80° C. until LC-MS/MS analysis. Prior to extraction, frozen samples were thawed on ice.
Brain tissues were diluted 1:5 w/v with acetonitrile containing losartan (0.5 μm) and homogenized, followed by vortex-mixing and centrifugation at 10,000 g for 10 min at 4° C. A 50 μL aliquot of the supernatant were diluted with 50 uL of water and transferred to 250 μL polypropylene autosampler vials sealed with teflon caps. Then, 2 μL of the sample were injected into the LC/MS/MS system for analysis. Chromatographic analysis was performed using an Accela ultra-high-performance system consisting of an analytical pump and an autosampler coupled with a TSQ Vantage mass spectrometer. […] The mobile phase consisted of 0.1% formic acid in acetonitrile and 0.1% formic acid in water with gradient elution were used. […] Plasma concentrations (nmol/ml) as well as brain tissue concentrations (nmol/g) were determined and plots of mean plasma concentration versus time were constructed. Non-compartmental analysis modules in Phoenix WinNonlin version 7.0 (Certara USA, Inc., Princeton, NJ) were used to quantify exposures (AUC0-t).

[5] = single time-point (2 h) oral pharmacokinetic screening in mice; type: in vivo, mouse; conditions: single time point PK, oral 10 mg/kg DPTIP equivalent
Description: as §3
Brain tissues were diluted 1:5 w/v with acetonitrile containing losartan (0.5 μm) and homogenized, followed by vortex-mixing and centrifugation at 10,000 g for 10 min at 4° C. […] Plasma concentrations (nmol/ml) as well as brain tissue concentrations (nmol/g) were determined and plots of mean plasma concentration versus time were constructed. Non-compartmental analysis modules in Phoenix WinNonlin version 7.0 (Certara USA, Inc., Princeton, NJ) were used to quantify exposures (AUC0-t).

[6] = in vitro metabolic stability in mouse plasma (Example 1); type: in vitro ADME; conditions: 10 μM, 37° C.
Description: 1.2.1 In vitro metabolic stability assessment. In vitro metabolic stability assessment was performed using mouse plasma, and liver homogenates. For the liver homogenates, washed tissues were diluted 10-fold in 0.1 M potassium phosphate buffer and homogenized using a probe sonicator. To evaluate the stability of the intact prodrug over time, each of the tissue matrix were aliquoted to 1 mL and then spiked with 10 μM of corresponding prodrugs followed by incubation in an orbital shaker at 37° C. for 1 h (in triplicate). Sample from each incubation at predetermined time points (0 min, and 1 h) was quenched with three volumes of acetonitrile containing the internal standard (IS: losartan: 0.5 μm). Samples were vortex-mixed for 30 secs and centrifuged at 10,000 RPM for 10 min at 4° C. Disappearance of the intact compound was measured using liquid chromatography tandem mass spectrometry (LC-MS/MS). 1.2.2 In vivo pharmacokinetic studies in mice. Male CD-1 mice (n=3) were used to study the pharmacokinetic profiles of representive prodrug compounds. […] Blood and brain were collected after sacrificing the mice at predetermined time points. Plasma was harvested from blood by centrifugation at 3,000 RPM for 15 min and stored at −80° C. Brain tissues were harvested following blood collection and immediately snap frozen in liquid nitrogen and stored at −80° C. until LC-MS/MS analysis. […]

[7] = dog plasma pharmacokinetics; type: in vivo; conditions: IV 2 mg/kg
[8] = previously reported pharmacokinetics; cited from earlier work
EV release = conditions: previously reported; in vitro (b234 also in vivo when delivered systemically); cited from earlier work
[9] = in vitro stability in CES1−/− mouse brain homogenates; type: in vitro ADME; conditions: CES1−/− mouse brain homogenate, 10 μM, 37° C.
Description: as §1, §2

[10] = male, CD-1, mouse, in vivo, po, intact prodrug, brain, mice, 10 mg/kg eqv
[11] = male, CD-1, mouse, in vivo, po, intact prodrug, plasma, mice, 10 mg/kg eqv

COc1cc(-c2nc(-c3ccccc3)c(-c3cccs3)[nH]2)cc(OC)c1OC(=O)N1CCC(N2CCCCC2)CC1 [Compound P1, 2,6-Dimethoxy-4-(4-phenyl-5-(thiophen-2-yl)-1H-imidazol-2-yl)phenyl[1,4′-bipiperidine]-1′-carboxylate]
AUC [1, 10]: 0.477 µM·h
MRT [1, 10]: 2.12 h
half-life [1, 10]: 262 min
Cmax ([1]; male, CD-1, mouse, in vivo, po, intact prodrug, brain, mice, 10 mg/kg eqv, read-out: Cmax): 106 ± 11.6 nM
AUC [1, 11]: 0.805 µM·h
MRT [1, 11]: 3.39 h
half-life [1, 11]: 147 min
Cmax ([1]; male, CD-1, mouse, in vivo, po, intact prodrug, plasma, mice, 10 mg/kg eqv, read-out: Cmax): 546 ± 25.8 nM
Tmax [1, 11]: 1 h
Kp ([1]; male, CD-1, mouse, in vivo, intact prodrug, mice, 10 mg/kg eqv, read-out: Brain:Plasma ratio): 0.6
Stability in mouse (% remaining at 1h) Mean + Std Error, Liver [2]: 85 ± 3%
Stability in mouse (% remaining at 1h) Mean + Std Error, Plasma ([3]; CES1−/− mouse plasma, 37° C.): 90 ± 2%
plasma exposure of the intact compound (AUC0-t) ([4]; oral 10 mg/kg DPTIP equivalent): 829.9 pmol·h/mL
conversion of prodrug to DPTIP in vivo ([4]; oral 10 mg/kg DPTIP equivalent (P18: in the brain)): about 40%
improvement of brain and plasma levels of DPTIP and/or its brain penetration index compared with DPTIP [5]: highest improvement

COc1cc(-c2nc(-c3ccccc3)c(-c3cccs3)[nH]2)cc(OC)c1OC(=O)C1=CN(C)C=CC1 [Compound P17, 2,6-Dimethoxy-4-(4-phenyl-5-(thiophen-2-yl)-1H-imidazol-2-yl)phenyl 1-methyl-1,4-dihydropyridine-3-carboxylate]
Stability in mouse (% remaining at 1h) Mean + Std Error, Liver [2]: 22 ± 1%
Stability in mouse (% remaining at 1h) Mean + Std Error, Plasma ([3]; CES1−/− mouse plasma, 37° C.): 52 ± 2%
intact prodrug remaining after 1 hour of incubation [6]: approximately 50%

COc1cc(-c2nc(-c3cccs3)c(-c3ccccc3)[nH]2)cc(OC)c1O [DPTIP, 2,6-dimethoxy-4-(5-phenyl-4-(thiophen-2-yl)-1H-imidazol-2-yl) phenol, reference compound]
Cmax ([1]; male, CD-1, mouse, plasma, po): 400 nM
brain levels of DPTIP ([1]; mice, oral 10 mg/kg DPTIP equivalent): 50 nM
AUC [7]: 7.47 µM·h
Cmax [7]: 5.5 µM
t1/2 (rapid clearance) of DPTIP [8]: < 30 min
Stability in mouse (% remaining at 1h) Mean + Std Error, Liver [2]: 98 ± 6%
Stability in mouse (% remaining at 1h) Mean + Std Error, Plasma ([3]; CES1−/− (carboxylesterase 1 knockout), mouse, plasma): 103 ± 2%
inhibition of EV release (EV release): dose-dependently inhibiting EV release in vitro and in vivo
Stability in mouse (% remaining at 1h) Mean + Std Error, Brain [9]: 89 ± 4%
